Reference: patent US11292781B2, “Pyrimidine tricyclic enone derivatives for inhibition of ROR-gamma and other uses” (REATA PHARMACEUTICALS, INC., priority 2016, dated 2022)
Read-outs that look alike come from different tables or passages of the source.

Assays:
[1] = test system: IL-17A levels in primary human CD4+ T cells differentiated into Th17 cells; experiment: IL-17 release from differentiated primary human T-cells (IL-17A HTRF); assay type: cell-based
Procedure: C. IL-17 Release from Differentiated Primary Human T-Cells and Cell Viability Primary human cryopreserved CD4+ T Cells (Lonza, donor #0000402103) were plated in Lymphocyte Growth Medium-3 (LGM-3, Lonza) according to the manufacturer's recommendations, and allowed to recover for approximately 3 hours at 37° C. with 5% CO2 in a humidified atmosphere. […] Triplicate wells were plated for each test condition. DMSO (final concentration ≤0.1%) was used as the vehicle. Immediately after plating, CD4+ T cells were activated by adding Dynabeads Human T-Activator CD3/CD28 (Life Technologies; bead-to-cell ratio of 1:2.5) and differentiated into Th17 cells by adding a mixture of the following cytokines: transforming growth factor-β (TGF-β, 5 ng/mL), IL-6 (20 ng/mL), IL-23 (20 ng/mL), and […] (10 ng/mL). Undifferentiated control cells received only cytokine IL-2 (50 ng/mL). All human recombinant cytokines were purchased from R&D Systems. Following a 46-hour incubation at 37° C. with 5% CO2 in a humidified atmosphere, the plates were centrifuged for 3 minutes at 250×g, and half of the supernatant was transferred to a new plate to be used in the IL-17A assay (see below). Cell viability was assessed in the original plate using the CyQuant Direct Assay (Life Technologies). CyQuant values from test compound samples were normalized to those from DMSO-treated samples. The concentration of IL-17A in the supernatant was measured using the Homogeneous Time-Resolved Fluorescence (HTRF) assay (Cisbio Bioassays) according to the manufacturer's protocol. The assay was performed at room temperature in low volume, solid white 384-well plates (Greiner Bio-One). […] A non-linear regression analysis with log (inhibitor) vs. normalized response using a variable slope was applied to fit the data and determine the IC50 values for inhibition of IL-17A levels and cell viability.

[2] = test system: Nrf2 transcription factor (GST ARE luciferase reporter in AREc32 cells); experiment: AREc32 luciferase reporter assay; assay type: cell-based, human; conditions: EC2×: concentration required to increase GST ARE luciferase reporter activity by 2-fold, 19 hours
Method in brief: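 AREc32 cells (MCF-7 carrying luciferase under eight rat GSTA2 ARE copies) treated with compound; luciferase measured by ONE-Glo luminescence. Signal normalised to DMSO wells as fold-induction, fitted by variable-slope log(agonist)-response regression, with EC2× interpolated from the curve.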

[3] = primary human CD4+ T cells, Th17 differentiation, 46-hour incubation, read-out: hIL17 IC50

Compound | IC50 [1, 3] | HRF2 ARE 2× [2] | IC50 ([1]; Homo sapiens, CD4+ T, 46 h, read-out: hIL17 IC50 (nM))
Cc1cc(-c2nc(-c3ccccc3F)c3c(n2)[C@]2(C)C=C(C#N)C(=O)[C@H](C)[C@H]2CC3)ncn1 [T78] | 89 nM | 629 nM | 
C[C@H]1C(=O)C(C#N)=C[C@@]2(C)c3nc(-c4ccnnc4)nc(-c4ccccc4F)c3CC[C@H]12 [T79] | 143 nM | 109 nM | 
C[C@H]1C(=O)C(C#N)=C[C@@]2(C)c3nc(-c4ccnc5c4CCC5)nc(-c4ccccc4F)c3CC[C@H]12 [T80] | 58 nM | 312 nM | 
C[C@H]1C(=O)C(C#N)=C[C@@]2(C)c3nc(-c4cccc5ncccc45)nc(-c4ccccc4F)c3CC[C@H]12 [T84] | 36 nM | 321 nM | 
Cc1cc(-c2nc(-c3ccccc3F)c3c(n2)[C@]2(C)C=C(C#N)C(=O)[C@H](C)[C@H]2CC3)c2cc(F)ccc2n1 [T85] | 38 nM | 307 nM | 
C[C@H]1C(=O)C(C#N)=C[C@@]2(C)c3nc(-c4cccc5cnccc45)nc(-c4ccccc4F)c3CC[C@H]12 [T86] | 33 nM | 276 nM | 
Cc1noc(C)c1-c1nc(-c2ccccc2F)c2c(n1)[C@]1(C)C=C(C#N)C(=O)[C@H](C)[C@H]1CC2 [T87] | 109 nM | 245 nM | 
C[C@H]1C(=O)C(C#N)=C[C@@]2(C)c3nc(-c4ccnc5ccc(F)cc45)nc(-c4ccccc4F)c3CC[C@H]12 [T89] | 62 nM | 274 nM | 
C[C@H]1C(=O)C(C#N)=C[C@@]2(C)c3nc(-c4ccnc5c(F)cc(F)cc45)nc(-c4ccccc4F)c3CC[C@H]12 [T90] | 37 nM | 301 nM | 
C[C@H]1C(=O)C(C#N)=C[C@@]2(C)c3nc(-c4ccnc5ccccc45)nc(C4CC4)c3CC[C@H]12 [T93] | 101 nM | 283 nM | 
C[C@H]1C(=O)C(C#N)=C[C@@]2(C)c3nc(-c4ccnc5ccccc45)nc(OC4CCC4)c3CC[C@H]12 [T94] | 58 nM | 321 nM | 
C[C@H]1C(=O)C(C#N)=C[C@@]2(C)c3nc(-c4ccnc5ccccc45)nc(OCC4CCC4)c3CC[C@H]12 [T95] |  | 430 nM | 68 nM
C[C@H]1C(=O)C(C#N)=C[C@@]2(C)c3nc(-c4ccnc5ccccc45)nc(OC4CCCCC4)c3CC[C@H]12 [T96] | 58 nM | 492 nM | 
C[C@H]1C(=O)C(C#N)=C[C@@]2(C)c3nc(-c4ccnc5ccccc45)nc(OC4CCCC4)c3CC[C@H]12 [T97] | 35 nM | 330 nM | 
C[C@H]1C(=O)C(C#N)=C[C@@]2(C)c3nc(-c4ccnc5ccccc45)nc(N(C)C)c3CC[C@H]12 [T99] | 189 nM | 508 nM | 
Cc1noc(C)c1-c1nc(-c2ccnc3ccccc23)nc2c1CC[C@@H]1[C@@H](C)C(=O)C(C#N)=C[C@@]21C [T100] | 178 nM | 865 nM | 
C[C@H]1C(=O)C(C#N)=C[C@@]2(C)c3nc(-c4ccnc5ccccc45)nc(-c4ccc(C(=O)N(C)Cc5ccccc5)cc4)c3CC[C@H]12 [T101] | 200 nM | 295 nM | 
C[C@H]1C(=O)C(C#N)=C[C@@]2(C)c3nc(-c4ccnc5ccccc45)nc(-c4ccco4)c3CC[C@H]12 [T102] | 153 nM | 287 nM | 
C[C@H]1C(=O)C(C#N)=C[C@@]2(C)c3nc(-c4ccnc5ccccc45)nc(-c4cc5ccccc5o4)c3CC[C@H]12 [T103] | 38 nM | 277 nM | 
Cc1ccc(-c2nc(-c3ccnc4ccccc34)nc3c2CC[C@@H]2[C@@H](C)C(=O)C(C#N)=C[C@@]32C)o1 [T104] | 86 nM | 293 nM | 

Compound | IC50 [1, 3] | HRF2 ARE 2× [2] | IC50 ([1]; Homo sapiens, CD4+ T, 46 h, read-out: hIL17 IC50 (nM))
Cc1noc(-c2nc(-c3ccnc4ccccc34)nc3c2CC[C@@H]2[C@@H](C)C(=O)C(C#N)=C[C@@]32C)n1 [T105] | 65 nM | 292 nM | 
Cc1nc(-c2nc(-c3ccnc4ccccc34)nc3c2CC[C@@H]2[C@@H](C)C(=O)C(C#N)=C[C@@]32C)no1 [T106] | 173 nM | 139 nM | 
C[C@H]1C(=O)C(C#N)=C[C@@]2(C)c3nc(-c4ccnc5ccccc45)nc(-c4nccs4)c3CC[C@H]12 [T107] | 170 nM | 284 nM | 
Cc1cc(-c2nc(-c3cccc(F)c3)c3c(n2)[C@]2(C)C=C(C#N)C(=O)[C@H](C)[C@H]2CC3)c2ccccc2n1 [T108] | 21 nM | 225 nM | 
Cc1cc(-c2nc(-c3ccc(F)cc3)c3c(n2)[C@]2(C)C=C(C#N)C(=O)[C@H](C)[C@H]2CC3)c2ccccc2n1 [T109] | 18 nM | 251 nM | 
Cc1cc(-c2nc(OC3CCC3)c3c(n2)[C@]2(C)C=C(C#N)C(=O)[C@H](C)[C@H]2CC3)c2ccccc2n1 [T110] | 37 nM | 317 nM | 
Cc1cc(-c2nc(OC3CCCC3)c3c(n2)[C@]2(C)C=C(C#N)C(=O)[C@H](C)[C@H]2CC3)c2ccccc2n1 [T111] | 19 nM | 317 nM | 
C[C@H]1C(=O)C(C#N)=C[C@@]2(C)c3nc(-c4ncnc5ccccc45)nc(OC4CCC4)c3CC[C@H]12 [T112] | 85 nM | 559 nM | 
C[C@H]1C(=O)C(C#N)=C[C@@]2(C)c3nc(-c4ncnc5ccccc45)nc(-c4cccc(F)c4)c3CC[C@H]12 [T113] | 48 nM | 734 nM | 
C[C@H]1C(=O)C(C#N)=C[C@@]2(C)c3nc(-c4ncnc5ccccc45)nc(-c4ccc(F)cc4)c3CC[C@H]12 [T114] | 46 nM | 484 nM | 
C[C@H]1C(=O)C(C#N)=C[C@@]2(C)c3nc(-c4cc(CF)nc5ccccc45)nc(-c4ccccc4F)c3CC[C@H]12 [T115] | 14 nM | 260 nM | 
C[C@H]1C(=O)C(C#N)=C[C@@]2(C)c3nc(-c4cc(C=O)nc5ccccc45)nc(-c4ccccc4F)c3CC[C@H]12 [T116] | 65 nM | 303 nM | 
CC(=O)OCc1cc(-c2nc(-c3ccccc3F)c3c(n2)[C@]2(C)C=C(C#N)C(=O)[C@H](C)[C@H]2CC3)c2ccccc2n1 [T117] | 58 nM | 232 nM | 
Cc1cc(-c2nc(-c3ccccc3F)c3c(n2)[C@]2(C)C=C(C#N)C(=O)C(C)(C)[C@H]2CC3)c2ccccc2n1 [T119] | 37 nM | 351 nM | 
C[C@H]1C(=O)C(C#N)=C[C@@]2(C)c3nc(-c4cc(CF)nc5ccccc45)nc(OC4CCCC4)c3CC[C@H]12 [T120] | 29 nM | 334 nM | 
C[C@H]1C(=O)C(C#N)=C[C@@]2(C)c3nc(-c4ccnc5c(F)cccc45)nc(OC4CCCC4)c3CC[C@H]12 [T121] | 36 nM | 390 nM | 
CC1(C)C(=O)C(C#N)=C[C@@]2(C)c3nc(-c4cc(CF)nc5ccccc45)nc(-c4ccccc4F)c3CC[C@H]12 [T122] | 31 nM | 402 nM | 
CC(C)c1cc(-c2nc(-c3ccccc3F)c3c(n2)[C@]2(C)C=C(C#N)C(=O)[C@H](C)[C@H]2CC3)c2ccccc2n1 [T123] | 20 nM | 371 nM | 
CCC[C@@]1(C)C(=O)C(C#N)=C[C@@]2(C)c3nc(-c4ccnc5ccccc45)nc(-c4ccccc4F)c3CC[C@H]12 [T124] | 22 nM | 220 nM | 
CC1(C)C(=O)C(C#N)=C[C@@]2(C)c3nc(-c4ccnc(C5CC5)c4)nc(-c4ccccc4F)c3CC[C@H]12 [T125] | 27 nM | 549 nM | 
